Measured values from paper PMC7600127, “Peptide-Based TNF-α-Binding Decoy Therapy Mitigates Lipopolysaccharide-Induced Liver Injury in Mice” (Pharmaceuticals, 2020).

Test system: LPS-induced liver injury
Assay: Exogenous TNF-α counteraction of SEM18 in LPS-treated mice
Assay type: in vivo, Balb/cJ mice
Settings: LSEM + TNF-α group vs LSEM group; TNF-α 0.3 mg/kg then 3 x 0.15 mg/kg i.p. with SEM18; 24 h after LPS 15 mg/kg; n = 5
Procedure: Exogenous TNF-α (recombinant mouse TNF-α; R&D Systems, Minneapolis, MN, USA) was used to confirm whether the therapeutic effects of SEM18 peptide were mediated by decreasing TNF-α binding to TNFR1. A set of mice (n = 5, designated as the LSEM + TNF-α group) were treated with LPS as described earlier. Two hours after LPS, exogenous TNF-α (0.3 mg/kg i.p.) was administered, followed by SEM18 (0.3 mg/kg, i.p.). Supplemental doses of exogenous TNF-α administration (0.15 mg/kg, i.p.) and SEM18 (0.15 mg/kg, i.p.) were administered every 2 h three times. These mice were closely monitored for 24 h (starting from LPS administration). All mice survived the experiment. […]
Figure 7 Exogenous tumor necrosis factor (TNF)-α counteracts the effects of SEM18 peptide. (A) Binding of TNF-α to TNF receptor 1, as measured at 24 h after lipopolysaccharide (LPS) administration using immunofluorescence staining of proximity ligation assay (PLA). (B) Plasma concentrations of aspartate aminotransferase (AST) and alanine aminotransferase (ALT) and the wet/dry (W/D) weight ratio of the liver tissues, as measured at 24 h after LPS administration. […] For apoptosis analysis, liver tissues were assayed using the terminal deoxynucleotidyl transferase dUTP nick-end labeling (TUNEL) method and the mean TUNEL-positive cell in liver tissues (per 0.25 mm^2) was calculated, as measured at 24 h after LPS administration. […]

recombinant mouse TNF-α [exogenous TNF-α]
effect of exogenous TNF-α on the therapeutic effects of SEM18 peptide: counteracting the therapeutic effects of SEM18 peptide
